Measurements taken from the NIST ThermoML archive (doi:10.1021/acs.jced.7b00065).
Numbers after ± are expanded uncertainties.

How the values were obtained:
[1] = Crystal; DTA
[2] = Molar enthalpy of transition or fusion; conditions: Crystal; DSC

Normal melting temperature [1]: 272.03 ± 1.1 °C
Molar enthalpy of transition or fusion [2]: 6.91 ± 0.43 kcal/mol
SMILES: Cn1c(=O)c2[nH]cnc2n(C)c1=O [3,7-dihydro-1,3-dimethyl-1H-purine-2,6-dione]
